{"source": "patent US5037957A", "about": "“Cysteine proteinase inhibitor” (priority 1987, dated 1991)", "key": {"papain": {"target": "T1, papain (Carica papaya, UniProt P00784)", "T1 construct": "purchased Sigma type III", "T1 sequence (P00784 134-345)": "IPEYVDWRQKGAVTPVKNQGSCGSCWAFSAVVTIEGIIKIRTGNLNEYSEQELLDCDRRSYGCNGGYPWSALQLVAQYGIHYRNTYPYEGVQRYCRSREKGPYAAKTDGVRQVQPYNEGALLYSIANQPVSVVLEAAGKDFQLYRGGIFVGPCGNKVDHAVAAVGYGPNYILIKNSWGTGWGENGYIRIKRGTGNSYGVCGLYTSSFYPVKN", "type": "biochemical", "details": "for apparent rate constant (k'+2, second order) for inactivation of papain: 12-fold molar excess of inhibitor, papain 2×10^-8 M, pH 6.5, 22° C", "method": "Activity determination of papain was performed according to Barrett et al (ibid.), using Z-Phe-Arg-NHMec as substrate in 0.1M phosphate buffer, pH 6.5/1 mM DTT/1 mM EDTA at room temperature (22° C). All test dilutions were performed in 0.01% Brij 35. The reaction was started by substrate addition (20 μM final concentration) and stopped 10 minutes later by the addition of an equal volume of 0.1M NaCH2 Cl/NaAc, pH 4.3. Released fluorogen product was measured in a Perkin-Elmer MPF-43A spectrofluorimeter (excitation 360 nm, emission 460 nm) against a blank with the same contents as the test solution where chloroacetate had been added before the addition of enzyme/substrate.\nThe molar active concentration of the papain solution used was determined by titration with E-64 (Barrett et al., ibid.). Stock solutions (1 mM) of LVG and VG were prepared by weighing 10 μmol of the respective peptidyl diazomethyl ketone which was thereafter dissolved in 500 μl acetonitrile (LVG) or 100 μl DMSO (VG), whereupon the volumes were adjusted to 10 ml with water. The exact concentration of peptidyl diazomethyl ketone was experimentally established, such that the reaction proceeded within a reasonable time with regard to the measuring technique used. Enzyme (2×10^-8 M final concentration) and peptidyl diazomethyl ketone were mixed at zero time. 25 μl samples were withdrawn at suitable times (15 s-10 min.) and therafter immediately added to mixtures for enzyme activity determination (see above). The dilution then obtained efficiently stopped continued reaction between enzyme and peptidyl diazomethyl ketone.\nEvaluation of experimental data was made in the manner described by Barret et al. (ibid.), where\nWhen i>>e, the following equation applies to the kinetics of inactivation: [formula] where ao is enzyme activity (here measured as amount of released fluorogen product from the substrate Z-Phe-Arg-NHMec) at zero time, and at is enzyme activity at time t.\nThe apparent rate constant k'+2 (second order) for the inactivation in the scheme\nwas caculated as kobs /i.\nPapain was incubated with LVG and VG in a 12-fold molar excess, and samples were withdrawn at different times for determining residual enzyme activity."}, "trypsin": {"target": "trypsin (Bos taurus, UniProt P00760)", "details": "250-fold molar excess, even after incubation for one hour", "method": "Trypsin activity at pH 7.5 was measured at room temperature (22° C.) on samples in buffer with a final concentration of 25 mN Tris/25 mM CaCl2 The reaction was started by the addition of Bz-DL-Arg-pNA to 2.5 mN final concentration and stopped after 10 minutes by the addition of an equal volume of 50% (v/v) HAc. Released paranitroaniline was meausred spectrophotometrically (Perkin-Elmer 550S) at 405 nm. Absorbancy values for blank (HAc addition before enzyme/substrate addition) were subtracted before evaluation."}, "group-A streptococci [1]": {"test_system": "group-A streptococci", "method": "Group-A streptococci were cultured on blood agar discs as in routine diagnosis for determining sensitivity to antibiotics. The discs applied on the culture gel and used for supplying different types of known antibiotics were this time soaked instead with 20 μl of a solution having an LVG concentration of 1 mM. […] (MIC=minimal inhibiting concentration)."}, "group-A streptococci [2]": {"test_system": "group-A streptococci", "details": "0.2 mg LVG intraperitoneally 45 min after lethal dose of group-A streptococci; five mice per group; none of the five controls alive", "method": "Ten mice were injected intraperitoneally with lethal doses of group-A streptococci. Five of them received after a period of 45 min. 0.2 mg LVG in 0.5 ml 1% dimethyl sulfoxide in physiological sterile saline by a second intraperitoneal injection."}, "streptococcal proteinase": {"target": "streptococcal proteinase (Streptococcus pyogenes serotype M1, UniProt P0C0J1)", "details": "proteinase 0.0625 mg/ml, 5 min preincubation at 37° C, azocasein 15 min", "description": "The isolated streptococcal proteinase (15 mg/ml) was diluted to 0.0625 mg/ml with 0.4M phosphate buffer, pH 6.5/4 mM EDTA/4 mM DTT and then activated by incubation at 37° C. for two hours. To a constant volume of the active streptococcal proteinase was thereafter added a constant volume of LVG solutions with increasing LVG concentration. After incubation for 5 min. at 37° C., the substrate azocasein was added and after additional incubation for exactly 15 min. at 37° C., the reaction was stopped by the addition of 20% TCA (trichloroacetic acid). The samples were centrifuged and the absorbancy of the supernatant was read at 366 nm."}, "human calpain": {"target": "human calpain (Homo sapiens, UniProt P07384)", "details": "calpain 2.5 μg/ml, 30 min at 37° C, pH 7.5", "description": "Isolated human calpain (0.15 mg/ml) in 20 mM Tris buffer, pH 7.5/5 mM CaCl2 /6 mM dithiothreitol was supplied with a substrate (0.4% casein in 0.1 M imidazole buffer, pH 7.5/5 mM CaCl2 /6 mM dithiothreitol) and different amounts of LVG. After incubation for 30 min. at 37° C., the reaction was stopped by the addition of trichloroacetic acid to a final concentration of 2.5%, and the samples were centrifuged, whereupon the absorption of the supernatant at 280 nm was measured."}}}
{"substance": "N-benzyloxycarbonyl-leucyl-valyl-glycine diazomethyl ketone [LVG]", "values": [{"measurement": "apparent rate constant (k'+2, second order) for inactivation of papain", "setting": "papain", "value": 300000, "unit": "M⁻¹ s⁻¹"}, {"measurement": "effectiveness as papain inhibitor relative to VG", "setting": "papain; LVG versus VG", "value": "about 100 times"}, {"measurement": "inhibition of trypsin enzyme activity", "setting": "trypsin", "value": "no inhibition"}, {"measurement": "effect on bacterial growth when a molar excess of isolated streptococcal proteinase was added to the LVG solution", "setting": "group-A streptococci [1]; LVG solution premixed with molar excess of streptococcal proteinase before application to cultures", "value": "no effect on the bacterial growth"}, {"measurement": "inhibition of growth of group-A streptococci on blood agar", "setting": "group-A streptococci [1]; discs soaked with 20 μl of 1 mM LVG, all tested isolates and reference strains", "value": "effectively inhibited in growth"}, {"measurement": "MIC (minimal inhibiting concentration) for group-A streptococci", "setting": "group-A streptococci [1]; growth in free solution", "value": "about 1 μg/l"}, {"measurement": "mice still alive after one day", "setting": "group-A streptococci [2]", "value": "five"}, {"measurement": "LVG concentration sufficient to give total inhibition of streptococcal proteinase activity", "setting": "streptococcal proteinase", "value": 10, "unit": "µM"}, {"measurement": "final concentration of LVG giving complete inhibition of calpain", "setting": "human calpain", "value": 1, "unit": "µM"}]}
{"substance": "N-t-butyloxycarbonyl-valyl-glycine diazomethyl ketone [VG]", "values": [{"measurement": "apparent rate constant (k'+2, second order) for inactivation of papain", "setting": "papain", "value": 5000, "unit": "M⁻¹ s⁻¹"}, {"measurement": "inhibition of trypsin enzyme activity", "setting": "trypsin", "value": "no inhibition"}]}
{"substance": "synthetic peptide corresponding to position 4-21 in cystatin C: synthetic peptide corresponding to position 4-21 in cystatin C (synthesized on request by Ferring AB, Malmo, Sweden) (GKPPRLVGGPMDASVEEE; UniProt P01034 30-47, looked up, fragment) [reference compound]", "values": [{"measurement": "inhibition of papain", "setting": "papain", "value": "does not at all inhibit"}, {"measurement": "behaviour as substrate for papain", "setting": "papain; cleaved at the glycine-glycine peptide bond", "value": "excellent substrate"}]}
